# Several values for one entry are separate records, joined by “and”; a condition that tells them apart may be missing. Identical values can stand only once.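 These data come from cells grown in 96-well plates and exposed to compound for 48 hours at five concentrations. The concentration for 50% growth inhibition is given as GI50. The concentration for full growth arrest is given as TGI.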
# What was measured:
# Assay in all cases: growth of human tumour cells (NCI), 48 h
# [1] = tested on: HCT-15 colon
# [2] = tested on: K-562 leukemia
# [3] = tested on: MOLT-4 leukemia
# [4] = tested on: NCI-H226 lung
# [5] = tested on: SF-539 CNS
# [6] = tested on: SK-MEL-5 melanoma
# [7] = tested on: TK-10 renal
# [8] = tested on: UACC-62 melanoma
# [9] = tested on: KM20L2 colon
# [10] = tested on: SNB-78 CNS
structure (smiles),measurement,setting,value
Cc1cc(=O)oc2c(CN3CCCCC3)c(O)ccc12,TGI,[1],> 100 µM
same,TGI,[2],> 100 µM
same,TGI,[3],> 100 µM
same,TGI,[4],> 100 µM
same,TGI,[5],> 100 µM
same,TGI,[6],> 100 µM
same,TGI,[7],> 100 µM
same,TGI,[8],> 100 µM
CC1(C)OC(=O)[C@@](C)([C@H](O)c2ccccc2)O1,TGI,[2],> 100 µM
same,TGI,[9],> 100 µM
same,TGI,[3],> 100 µM
same,TGI,[4],> 100 µM
same,TGI,[5],> 100 µM
same,TGI,[6],> 100 µM
same,TGI,[10],> 100 µM
same,TGI,[7],> 100 µM
same,TGI,[8],> 100 µM
COc1ccc(C[n+]2c3ccccc3n3c4ccc(N)cc4ccc32)c(OC)c1OC,GI50,[1],82.1 µM
same,TGI,[1],> 100 µM
same,GI50,[2],4.87 µM
same,TGI,[2],> 100 µM
same,GI50,[3],3140 nM
same,TGI,[3],35.2 µM
same,GI50,[4],12.8 µM
same,TGI,[4],60.8 µM
same,GI50,[5],2.89 µM
same,TGI,[5],15.2 µM
same,GI50,[6],1440 nM
same,TGI,[6],7.27 µM
same,GI50,[7],22.4 µM
same,TGI,[7],79.4 µM
same,GI50,[8],2620 nM
same,TGI,[8],10.9 µM
[C-]#[O+].[Cl][Sn]([Cl])[Cl].[Cl][Sn]([Cl])[Cl].[Pt].c1ccc([PH+](c2ccccc2)c2ccccc2)cc1.c1ccc([PH+](c2ccccc2)c2ccccc2)cc1,GI50,[1],49.9 µM
same,TGI,[1],> 100 µM
same,GI50,[2],34.8 µM
same,TGI,[2],> 100 µM
same,GI50,[9],> 100 µM
same,TGI,[9],> 100 µM
same,GI50,[5],92.3 µM
same,TGI,[5],> 100 µM
same,GI50,[6],31500 nM
same,TGI,[6],> 100 µM
same,GI50,[10],> 100 µM
same,TGI,[10],> 100 µM
same,GI50,[7],25.5 µM
same,TGI,[7],52.3 µM
same,GI50,[8],27700 nM
same,TGI,[8],> 100 µM
C=C1C(=O)O[C@H]2[C@H]1CC/C(Cn1cc(CNCCc3c[nH]c4ccc(Cl)cc34)nn1)=C\CC[C@@]1(C)O[C@@H]21,GI50,[1],13.4 µM
same,TGI,[1],29.9 µM
same,GI50,[2],2.91 µM
same,TGI,[2],25.2 µM
same,GI50,[3],2540 nM
same,TGI,[3],6.56 µM
same,GI50,[4],31.3 µM
same,TGI,[4],> 100 µM
same,GI50,[5],4.23 µM
same,TGI,[5],14.6 µM
same,GI50,[6],17000 nM
same,TGI,[6],34.9 µM
same,GI50,[7],2.29 µM
same,TGI,[7],7 µM
same,GI50,[8],4650 nM
same,TGI,[8],16.9 µM
Cc1c(C)c2c(c(C)c1NC(=O)/C=C\C(=O)O)CCC(C)(CCCC(C)CCCC(C)CCCC(C)C)O2 (configuration not stated),GI50,[1],1.83 µM
same,TGI,[1],4.65 µM
same,GI50,[2],2.3 µM
same,TGI,[2],7.16 µM
same,GI50,[3],2060 nM
same,TGI,[3],7.19 µM
same,GI50,[4],1.96 µM
same,TGI,[4],4.38 µM
same,GI50,[5],1.68 µM
same,TGI,[5],3.11 µM
same,GI50,[6],1730 nM
same,TGI,[6],3.15 µM
same,GI50,[7],1.84 µM
same,TGI,[7],3.39 µM
same,GI50,[8],1800 nM
same,TGI,[8],3.22 µM
COc1cccc(C(=O)Nc2ccc(CN3CCc4nc5cc(OC)c(OC)cc5cc43)cc2)c1,GI50,[1],3.32 µM
same,TGI,[1],19.3 µM
same,GI50,[2],3.72 µM
same,TGI,[2],15.5 µM
same,GI50,[3],2850 nM
same,TGI,[3],10.7 µM
same,GI50,[4],5.69 µM
same,TGI,[4],> 100 µM
same,GI50,[5],5.51 µM
same,TGI,[5],23.8 µM
same,GI50,[6],2970 nM
same,TGI,[6],10.9 µM
same,GI50,[7],3.78 µM
same,TGI,[7],21.4 µM
same,GI50,[8],7130 nM
same,TGI,[8],21.3 µM
CCOC(=O)c1cc(/C=C/C(C)=C/C(=O)OC)oc1-c1ccccc1,TGI,[1],> 100 µM
same,TGI,[2],> 100 µM
same,TGI,[9],> 100 µM
same,TGI,[3],> 100 µM
same,TGI,[4],> 100 µM
same,TGI,[5],> 100 µM
same,TGI,[6],> 100 µM
same,TGI,[7],> 100 µM
same,TGI,[8],> 100 µM
CN(C)c1ccc2c(c1)CN1C(=O)c3ccccc3C1=N2,GI50,[1],> 100 µM
same,TGI,[1],> 100 µM
same,GI50,[3],> 100000 nM
same,TGI,[3],> 100 µM
same,GI50,[4],> 100 µM
same,TGI,[4],> 100 µM
same,GI50,[5],> 100 µM
same,TGI,[5],> 100 µM
same,GI50,[6],> 100000 nM
same,TGI,[6],> 100 µM
same,GI50,[10],> 100 µM
same,TGI,[10],> 100 µM
same,GI50,[7],> 100 µM
same,TGI,[7],> 100 µM
same,GI50,[8],> 100000 nM
same,TGI,[8],> 100 µM
O=S1CSCS1 (configuration not stated),TGI,[2],> 100 µM
same,TGI,[9],> 100 µM
same,TGI,[3],> 100 µM
same,TGI,[4],> 100 µM
same,TGI,[5],> 100 µM
same,TGI,[6],> 100 µM
same,TGI,[10],> 100 µM
same,TGI,[7],> 100 µM
same,TGI,[8],> 100 µM
C=CCn1c(=O)c2cnc(Nc3ccc(N4CCN(C)CC4)cc3)nc2n1-c1ccc2c(n1)[C@@](O)(CC)CC2,GI50,[1],0.949 µM
same,TGI,[1],13.8 µM
same,GI50,[2],0.325 µM
same,TGI,[2],> 34.8 µM
same,GI50,[3],296 nM
same,TGI,[3],1.37 µM
same,GI50,[4],1.94 µM
same,TGI,[4],15.2 µM
same,GI50,[5],0.175 µM
same,TGI,[5],0.68 µM
same,GI50,[6],300 nM
same,TGI,[6],1.27 µM
same,GI50,[7],1.41 µM
same,TGI,[7],49.2 µM
same,GI50,[8],504 nM
same,TGI,[8],16.4 µM
Cc1onc(-c2c(F)cccc2Cl)c1-c1ncc(-c2ccc(Cl)cc2)o1,GI50,[1],2.89 µM
same,TGI,[1],> 100 µM
same,GI50,[2],4.35 µM
same,TGI,[2],> 100 µM
same,GI50,[3],4610 nM
same,TGI,[3],> 100 µM
same,GI50,[4],5.93 µM
same,TGI,[4],> 100 µM
same,GI50,[5],5.07 µM
same,TGI,[5],> 100 µM
same,GI50,[6],2550 nM
same,TGI,[6],8.33 µM
same,GI50,[7],8.33 µM
same,TGI,[7],> 100 µM
same,GI50,[8],2700 nM
same,TGI,[8],> 100 µM
Oc1c(C(Nc2cccc3ccccc23)c2ccccc2)ccc2cccnc12 (configuration not stated),GI50,[1],3.78 µM
same,TGI,[1],62.1 µM
same,GI50,[2],3.8 µM
same,TGI,[2],> 100 µM
same,GI50,[3],2410 nM
same,TGI,[3],> 100 µM
same,GI50,[4],2.17 µM
same,TGI,[4],8.06 µM
same,GI50,[5],4.56 µM
same,TGI,[5],21.4 µM
same,GI50,[6],2100 nM
same,TGI,[6],5.99 µM
same,GI50,[7],11 µM
same,TGI,[7],45.8 µM
same,GI50,[8],2820 nM
same,TGI,[8],39.6 µM
COC(=O)CCC(C)[C@H]1CCC2C3C(C[C@H](OC(C)=O)[C@@]21C)[C@@]1(C)CCC2(C[C@H]1C[C@H]3OC(C)=O)OOC1(CCC(C)CC1)OO2 (some centres not stated),GI50,[1],8.89 µM and 30.9 µM
same,TGI,[1],> 100 µM
same,GI50,[2],3.78 µM and 26.8 µM
same,TGI,[2],> 100 µM
same,GI50,[3],2860 nM and 25500 nM
same,TGI,[3],> 100 µM
same,TGI,[4],> 100 µM
same,TGI,[5],> 100 µM
same,TGI,[6],> 100 µM
same,GI50,[7],10.8 µM and > 100 µM
same,TGI,[7],> 100 µM
same,TGI,[8],> 100 µM
COc1cc(N2CCN(C(C)C)CC2)ccc1Nc1nc(Nc2cccc3ncccc23)c2cc[nH]c2n1,GI50,[1],4.35 µM
same,TGI,[1],> 21.6 µM
same,GI50,[2],5.34 µM
same,TGI,[2],18.4 µM
same,GI50,[3],7510 nM
same,TGI,[3],> 23.2 µM
same,GI50,[4],4.82 µM
same,TGI,[4],> 25 µM
same,GI50,[5],3.94 µM
same,TGI,[5],8.15 µM
same,GI50,[6],3410 nM
same,TGI,[6],6.66 µM
same,GI50,[7],3.97 µM
same,TGI,[7],19.4 µM
same,GI50,[8],4060 nM
same,TGI,[8],8.53 µM
